Reference: patent US5246932A, “Heterocyclic compounds” (Imperial Chemical Industries PLC, priority 1991, dated 1993)

How the values were obtained:
A2 Adenosine receptor = target: T1, A2 Adenosine receptor (Rattus norvegicus, UniProt P30543); experiment: A2 Adenosine receptor affinity test ([3H]-NECA displacement, PC12 membranes); format: binding; conditions: rat PC12 cell membranes, 30° C., 90 minutes
T1 construct: membrane preparations derived from the rat phaeochromocytoma cell line PC 12; host or cells: PC 12 (rat phaeochromocytoma) membranes
T1 sequence (P30543 whole entry): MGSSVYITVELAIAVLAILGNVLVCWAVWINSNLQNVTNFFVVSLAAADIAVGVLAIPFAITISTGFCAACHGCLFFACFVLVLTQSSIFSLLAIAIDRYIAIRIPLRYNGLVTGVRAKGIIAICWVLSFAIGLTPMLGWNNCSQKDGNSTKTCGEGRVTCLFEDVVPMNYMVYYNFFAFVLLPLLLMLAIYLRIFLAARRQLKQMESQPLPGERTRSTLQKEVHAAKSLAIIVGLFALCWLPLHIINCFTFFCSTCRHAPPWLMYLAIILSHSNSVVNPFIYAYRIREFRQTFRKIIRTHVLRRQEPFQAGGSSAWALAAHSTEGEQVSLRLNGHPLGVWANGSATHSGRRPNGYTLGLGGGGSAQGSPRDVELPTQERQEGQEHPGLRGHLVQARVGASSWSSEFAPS
Protocol: The separated cells are then suspended in hypotonic solution (distilled water), allowed to stand on ice for 30 minutes and are then carefully homogenized using a standard high-speed homogeniser with periodic ice-cooling to obtain a fine suspension. […] The mixture is then incubated at 37° C. After 20 minutes, the reaction is terminated by dilution with ice-cold buffer and transfer onto ice. The material obtained containing the cell membranes is recovered by centrifugation and washed by resuspension in buffer and recentrifugation. The pellet produced is then resuspended in ice-cold buffer using a hand-driven homogenizer. The resultant membrane suspension is frozen and stored under liquid nitrogen until required.
After incubation, the samples are rapidly filtered over glass-fibre mats and the filter mats are washed to remove non-receptor-bound radioligand. Receptor-bound radioligand entrapped on the filter mats is then determined by liquid scintillation counting. Filtration and washing are carried out using a conventional vacuum filtration cell harvester. The specific binding (defined as the difference between the total binding and the non-specific binding) in the presence of the particular test compound is determined and compared with the control value.

[1] = target: T2, adenosine receptor known as A1 (Cavia porcellus, UniProt P47745); experiment: Guinea-pig Atrial Bradycardic Test; format: biochemical; conditions: antagonism of 2-chloroadenosine bradycardia in beating guinea-pig atrial pair; read-out: pA2 (converted)
T2 construct: Atrial pairs are obtained from guinea-pigs (Dunkin Hartley strain); from tissue; host or cells: guinea-pig spontaneously beating atrial pairs (Dunkin Hartley)
T2 sequence (P47745 1-326): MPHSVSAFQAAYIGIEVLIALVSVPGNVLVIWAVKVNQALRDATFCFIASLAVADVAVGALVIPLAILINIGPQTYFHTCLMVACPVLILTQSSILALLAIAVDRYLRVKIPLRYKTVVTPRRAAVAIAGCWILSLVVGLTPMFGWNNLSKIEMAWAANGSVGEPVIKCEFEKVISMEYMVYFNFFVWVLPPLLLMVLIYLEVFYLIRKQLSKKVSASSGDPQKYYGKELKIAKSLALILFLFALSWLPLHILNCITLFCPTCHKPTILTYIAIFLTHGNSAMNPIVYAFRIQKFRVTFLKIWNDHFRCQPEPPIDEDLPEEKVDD
Protocol: (c) Guinea-pig Atrial Bradycardic Test
The atrial pair preparation may be obtained as follows: Atrial pairs are obtained from guinea-pigs (Dunkin Hartley strain, 250-400 g males) and mounted in organ baths containing oxygenated Krebs buffer solution (95% O2; 5% CO2) at 37° C. The spontaneously beating atria are then placed under a resting tension of 1 g and allowed to equilibrate for 50 minutes with continuous overflow. Overflow is then stopped and adenosine deaminase (1 Unit/ml) added to prevent the accumulation of endogenously produced adenosine. After equilibration for 15 minutes, a cumulative dose response curve to the adenosine mimetic, 2-chloroadenosine(10^-8 M to 10^-4 M) is administered to produce a maximal slowing of atrial rate. After washout during 30 minutes, adenosine deaminase is readministered to the bath which is allowed to equilibrate for 15 minutes. A 10^-5 M solution of the test compound in DMSO is then added to the bath which is left to incubate for 30 minutes. Any effect on the beating rate due to the test compound is noted before the dose response curve to 2-chloroadenosine is repeated. Compounds which are adenosine antagonists attenuate the 2-chloroadenosine response.
Test compounds are assessed by comparing dose response curves to 2-chloroadenosine alone with those obtained in the presence of the compound. […]

[2] = target: adenosine receptor known as A2; experiment: Guinea-pig Aortic Constriction Test; format: biochemical; conditions: antagonism of adenosine relaxation of phenylephrine-constricted guinea-pig aortic ring
Excerpt: (b) Guinea-pig Aortic Constriction Test
This test has been described by Collis et al. (British J. Pharmacology, 1989, 97, 1274-1278) and involves the assessment of the ability of a test compound to antagonise the attenuatory effect of adenosine on phenylephrine induced constriction of a guinea-pig aortic ring preparation, an effect mediated via the adenosine receptor known as A2.
The aortic ring preparation is obtained as follows:- Sections (3-5 mm) of guinea pig thoracic aorta (from Dunkin Hartley strain, 250-400 g males) are mounted in organ baths containing oxygenated Krebs solution (95% O2 : 5% CO2) at 37° C. [The nucleoside transport inhibitor, dipyridamole (10 μM) is present in the Krebs solution]. The isometric tension development is recorded and the tissue placed under a resting tension of 1 g and allowed to equilibrate for 1 hour. […] Adenosine is next added cumulatively (10^-7 M to 10^-3 M) and the evoked relaxation is measured. […]
Test compounds are assessed by plotting the percentage relaxation observed against the logarithm of the adenosine concentration, competitive adenosine antagonism producing a parallel shift in the standard adenosine concentration/relaxation (dose response) curve. […] The pA2 value, which is an estimate of the concentration of antagonist to give a dose ratio of 2, may also be calculated using a standard computation technique.

[3] = system: vasodilation response during twitch contraction of skeletal muscle; experiment: Anaesthetised cat exercise hyperaemia test; format: in vivo; conditions: 10 mg.kg^-1
Protocol: f) Anaesthetised cat exercise hyperaemia test
This test involves assessment of the effect of a test compound to antagonise the vasodilation response which occurs during twitch contraction of skeletal muscle. The vasodilation is mediated partly by the release of endogenous adenosine from the contracting skeletal muscle.
Cats (2.4-3.6 kg) are anaesthetised with sodium pentobarbitone (50 mg.kg^-1 ip). The following blood vessels are catheterized: left jugular vein (for infusion of anaesthetic, at approximately […] as a 6 mg.ml^-1 solution in isotonic saline), right external jugular vein (for administration of drugs and test compounds), right common carotid artery (for measurement of systemic arterial blood pressure and pulse rate) and right brachial artery (for withdrawal of blood).
Blood flow to the left hind limb is measured with an electromagnetic flow probe around the left external iliac artery. The whole of the left hind limb is made to contract at 3 Hz for 20 minutes duration by stimulating the sciatic and femoral nerves. Active tension produced by the extensor digitorum longus and peroneous longus muscles is measured isometrically with a force transducer. Exercise is repeated twice within the same animal, in either the absence or presence of the test compound. Test compounds are assessed for their ability to reduce the vasodilatation during skeletal muscle contraction.

IC50 (A2 Adenosine receptor) | Kb [1] | Structure (SMILES) | pA2 [2] | inhibition of vasodilatation during skeletal muscle contraction [3]
~0.000794 µM | 1 µM | Nc1nc(NCCc2ccc(Oc3nc(N)n4nc(-c5ccco5)nc4n3)cc2)nc2nc(-c3ccco3)nn12 [Example 1, 7-amino-5-[4-(2-[7-amino-2-(2-furyl)-[1,2,4]triazolo[1,5-a][1,3,5]triazin-5-ylamino]ethyl)phenoxy]-2-(2-furyl)[1,2,4]triazolo[1,5-a][1,3,5]triazine] | – | –
– | – | Cn1c(=O)c2[nH]cnc2n(C)c1=O [1,3-dimethylxanthine] | about 5 | significant inhibition
